The test system of experiment [1] is Phytophthora infestans (the causal agent of tomato late blight). In words: whole plant or invertebrate. The class given is in vivo. The settings on record: for pest or weed control at 0.4 ppm / pest or weed control at 2 ppm / pest or weed control at 10 ppm / pest or weed control at 40 ppm / pest or weed control at 200 ppm / pest or weed control at 0.04 ppm / pest or weed control at 0.08 ppm / pest or weed control at 0.016 ppm: Phytophthora infestans; for TLB Obsd: Table D; for TLB Obsd (observed effect, tomato late blight): component (b) alone.

For experiment [2], the system named is Pseudoperonospora cubensis (the causal agent of cucumber downy mildew). The experiment is described as follows: Test B: cucumber downy mildew, preventive spray on cucumber seedlings. The class given is in vivo.
[3] abbreviates: read-out: TLB Obsd (disease control rating), Table A, component (b) alone 0.4 ppm.
Setting [4] is: read-out: TLB Obsd (disease control rating), Table A, component (b) alone 2 ppm.
Setting [5] is: read-out: TLB Obsd (disease control rating), Table A, component (b) alone 10 ppm.
The mark [6] stands for this setting: read-out: TLB Obsd (disease control rating), Table A, component (b) alone 40 ppm.
The mark [7] stands for this setting: read-out: TLB Obsd (disease control rating), Table A, component (b) alone 200 ppm.
[8] abbreviates: read-out: TLB Obsd, component (b) alone, 2 ppm.
The mark [9] stands for this setting: read-out: TLB Obsd, component (b) alone, 10 ppm.
Where [10] appears, read: Pseudoperonospora cubensis, Table A, component (b) alone 0.4 ppm, read-out: CDM Obsd (disease control rating).
Setting [11] is: Pseudoperonospora cubensis, Table A, component (b) alone 2 ppm, read-out: CDM Obsd (disease control rating).
Where [12] appears, read: Pseudoperonospora cubensis, Table A, component (b) alone 10 ppm, read-out: CDM Obsd (disease control rating).
Setting [13] is: Pseudoperonospora cubensis, Table A, component (b) alone 40 ppm, read-out: CDM Obsd (disease control rating).
The mark [14] stands for this setting: Pseudoperonospora cubensis, Table A, component (b) alone 200 ppm, read-out: CDM Obsd (disease control rating).
The mark [15] stands for this setting: Pseudoperonospora cubensis, Table G, component (b) alone at 0.4 ppm, read-out: CDM Obsd.
Setting [16] is: Pseudoperonospora cubensis, Table G, component (b) alone at 2 ppm, read-out: CDM Obsd.
[17] abbreviates: Pseudoperonospora cubensis, Table G, component (b) alone at 10 ppm, read-out: CDM Obsd.
[18] abbreviates: Pseudoperonospora cubensis, Table G, component (b) alone at 40 ppm, read-out: CDM Obsd.
Where [19] appears, read: Pseudoperonospora cubensis, Table G, component (b) alone at 200 ppm, read-out: CDM Obsd.
Setting [20] is: Pseudoperonospora cubensis, component (b) alone, 2 ppm, read-out: CDM Obsd.
Where [21] appears, read: Pseudoperonospora cubensis, component (b) alone, 10 ppm, read-out: CDM Obsd.
Setting [22] is: read-out: TLB Obsd (observed effect, tomato late blight), component (b) alone, 2 ppm.
[23] abbreviates: read-out: TLB Obsd (observed effect, tomato late blight), component (b) alone, 10 ppm.
[24] abbreviates: read-out: TLB Obsd (observed effect, tomato late blight), component (b) alone, 40 ppm.
The mark [25] stands for this setting: Pseudoperonospora cubensis, component (b) alone, 2 ppm, read-out: CDM Obsd (observed effect, cucumber downy mildew).
The mark [26] stands for this setting: Pseudoperonospora cubensis, component (b) alone, 10 ppm, read-out: CDM Obsd (observed effect, cucumber downy mildew).
[27] abbreviates: Pseudoperonospora cubensis, component (b) alone, 40 ppm, read-out: CDM Obsd (observed effect, cucumber downy mildew).

Structures are written as SMILES. Like-named read-outs stand apart in the source and are kept apart here.

Regarding `O=C(Nc1ccccc1-c1ccc(Cl)cc1)c1cccnc1Cl` [boscalid], the pest or weed control at 0.4 ppm in experiment [1] (setting [3]) amounted to 9%; in experiment [2] (setting [10]), 47%; in experiment [2] (setting [15]), 47%. For the same molecule, the pest or weed control at 2 ppm in experiment [1] (setting [4]) was 17%; in experiment [1] (setting [8]), 0%; in experiment [2] (setting [11]), 47%; in experiment [2] (setting [16]) it was 47%; in experiment [2] (setting [20]) it was 0%. Moreover, the pest or weed control at 10 ppm was 17% in experiment [1] (setting [5]); 0% in experiment [1] (setting [9]); 47% in experiment [2] (setting [12]); 26% in experiment [2] (setting [17]); 0% in experiment [2] (setting [21]). Moreover, the pest or weed control at 40 ppm in experiment [1] (setting [6]) came out at 17%; in experiment [1] (read-out: TLB Obsd, component (b) alone, 40 ppm) it was 17%; in experiment [2] (setting [13]), 47%; in experiment [2] (setting [18]), 26%; in experiment [2] (Pseudoperonospora cubensis, component (b) alone, 40 ppm, read-out: CDM Obsd) it was 0%. For the same molecule, the pest or weed control at 200 ppm in experiment [1] (setting [7]) is 9%; in experiment [1] (read-out: TLB Obsd, component (b) alone, 200 ppm), 32%; in experiment [2] (setting [14]), 47%; in experiment [2] (setting [19]), 26%; in experiment [2] (Pseudoperonospora cubensis, component (b) alone, 200 ppm, read-out: CDM Obsd), 0%. Also, the pest or weed control at 0.04 ppm in experiment [1] (read-out: TLB Obsd, component (b) alone, 0.04 ppm) worked out at 25%; in experiment [2] (Pseudoperonospora cubensis, component (b) alone, read-out: CDM Obsd) it was 68%.
Turning to `N#Cc1c(Cl)c(Cl)c(Cl)c(C#N)c1Cl` [chlorothalonil], the pest or weed control at 0.08 ppm in experiment [1] (read-out: TLB Obsd (observed effect, tomato late blight), component (b) alone, 0.08 ppm) was 14%; in experiment [1] (read-out: TLB Obsd, Table E, component (b) alone at 0.08 ppm) it was 0%; in experiment [2] (Pseudoperonospora cubensis, Table F, component (b) alone at 0.08 ppm, read-out: CDM Obsd), 33%; in experiment [2] (Pseudoperonospora cubensis, component (b) alone, 0.08 ppm, read-out: CDM Obsd (observed effect, cucumber downy mildew)), 0%. For the same molecule, the pest or weed control at 0.4 ppm in experiment [1] (read-out: TLB Obsd (observed effect, tomato late blight), component (b) alone, 0.4 ppm) was 14%; in experiment [1] (read-out: TLB Obsd, Table E, component (b) alone at 0.4 ppm), 73%; in experiment [2] (Pseudoperonospora cubensis, Table F, component (b) alone at 0.4 ppm, read-out: CDM Obsd), 47%; in experiment [2] (Pseudoperonospora cubensis, component (b) alone, 0.4 ppm, read-out: CDM Obsd (observed effect, cucumber downy mildew)), 0%. For the same molecule, the pest or weed control at 2 ppm turned out to be 21% in experiment [1] (setting [22]); 100% in experiment [1] (read-out: TLB Obsd, Table E, component (b) alone at 2 ppm); 99% in experiment [2] (Pseudoperonospora cubensis, Table F, component (b) alone at 2 ppm, read-out: CDM Obsd); 0% in experiment [2] (setting [25]). Also, the pest or weed control at 10 ppm was 100% in experiment [1] (setting [23]); 100% in experiment [1] (read-out: TLB Obsd, Table E, component (b) alone at 10 ppm); 100% in experiment [2] (Pseudoperonospora cubensis, Table F, component (b) alone at 10 ppm, read-out: CDM Obsd); 70% in experiment [2] (setting [26]). The pest or weed control at 40 ppm in experiment [1] (setting [24]) turned out to be 100%; in experiment [2] (setting [27]) it was 71%. For the same molecule, the pest or weed control at 0.016 ppm in experiment [1] (read-out: TLB Obsd, Table E, component (b) alone at 0.016 ppm) came to 31%; in experiment [2] (Pseudoperonospora cubensis, Table F, component (b) alone at 0.016 ppm, read-out: CDM Obsd), 47%.
For the molecule `[Cu+2].[OH-].[OH-]` [copper hydroxide], the “TLB Obsd” value in experiment [1] (component (b) alone at 2 ppm) is 32%; in experiment [1] (component (b) alone at 10 ppm), 48%; in experiment [1] (component (b) alone at 40 ppm) it was 40%; in experiment [1] (component (b) alone at 200 ppm) it was 70%; in experiment [1] (component (b) alone at 500 ppm) it was 91%. Besides, the “TLB Obsd (observed effect, tomato late blight)” value in experiment [1] (2 ppm) is given as 22; in experiment [1] (10 ppm) it was 36; in experiment [1] (40 ppm), 50; in experiment [1] (200 ppm) it was 71; in experiment [1] (500 ppm), 77. The “CDM Obsd” value in experiment [2] (Table D, component (b) alone at 2 ppm) amounted to 53%; in experiment [2] (Table D, component (b) alone at 10 ppm), 63%; in experiment [2] (Table D, component (b) alone at 40 ppm) it was 85%; in experiment [2] (Table D, component (b) alone at 200 ppm) it was 85%; in experiment [2] (Table D, component (b) alone at 500 ppm), 88%; in experiment [2] (component (b) alone 2 ppm (Compound 1 0 ppm)) it was 47%. Further, the “CDM Obsd” value turned out to be 47% in experiment [2] (component (b) alone 10 ppm (Compound 1 0 ppm)), 47% in experiment [2] (component (b) alone 40 ppm (Compound 1 0 ppm)), 85% in experiment [2] (component (b) alone 200 ppm (Compound 1 0 ppm)) and 93% in experiment [2] (component (b) alone 500 ppm (Compound 1 0 ppm)). In addition, the “CDM Obsd (observed effect, cucumber downy mildew)” value in experiment [2] (component (b) alone, 2 ppm) is 0; in experiment [2] (component (b) alone, 10 ppm), 0; in experiment [2] (component (b) alone, 40 ppm), 0; in experiment [2] (component (b) alone, 200 ppm), 29; in experiment [2] (component (b) alone, 500 ppm), 37.
Take `Cc1ccc(-c2c(Cl)nc(C#N)n2S(=O)(=O)N(C)C)cc1` [cyazofamid]: the pest or weed control at 0.016 ppm in experiment [1] (read-out: TLB Obsd, component (b) alone, 0.016 ppm) amounted to 25%; in experiment [2] (Pseudoperonospora cubensis, component (b) alone, 0.016 ppm, read-out: CDM Obsd), 43%. The pest or weed control at 0.08 ppm came to 52% in experiment [1] (read-out: TLB Obsd, component (b) alone, 0.08 ppm) and 57% in experiment [2] (Pseudoperonospora cubensis, component (b) alone, 0.08 ppm, read-out: CDM Obsd). The pest or weed control at 0.4 ppm in experiment [1] (read-out: TLB Obsd, component (b) alone, 0.4 ppm) turned out to be 58%; in experiment [2] (Pseudoperonospora cubensis, component (b) alone, 0.4 ppm, read-out: CDM Obsd) it was 100%. For the same molecule, the pest or weed control at 2 ppm in experiment [1] (setting [8]) and in experiment [2] (setting [20]) was 100% throughout. The pest or weed control at 10 ppm in experiment [1] (setting [9]) and in experiment [2] (setting [21]) was 100% in each case. In addition, the pest or weed control at 0.016 µg/mL in experiment [2] (Pseudoperonospora cubensis, component (b) alone 0.016 ppm (Compound 1 0 ppm), read-out: CDM Obsd) came out at 47%. Further, the pest or weed control at 0.08 µg/mL in experiment [2] (Pseudoperonospora cubensis, component (b) alone 0.08 ppm (Compound 1 0 ppm), read-out: CDM Obsd) was determined as 100%. In addition, the pest or weed control at 0.4 µg/mL in experiment [2] (Pseudoperonospora cubensis, component (b) alone 0.4 ppm (Compound 1 0 ppm), read-out: CDM Obsd) stood at 100%. Also, the pest or weed control at 2 µg/mL in experiment [2] (Pseudoperonospora cubensis, component (b) alone 2 ppm (Compound 1 0 ppm), read-out: CDM Obsd) amounted to 100%. For the same molecule, the pest or weed control at 10 µg/mL in experiment [2] (Pseudoperonospora cubensis, component (b) alone 10 ppm (Compound 1 0 ppm), read-out: CDM Obsd) was 100%.
Regarding `CCNC(=O)NC(=O)/C(C#N)=N/OC` [cymoxanil], the pest or weed control at 0.4 ppm in experiment [1] (setting [3]) was found to be 9%; in experiment [2] (setting [10]) it was 47%; in experiment [2] (setting [15]), 26%. The pest or weed control at 2 ppm in experiment [1] (setting [4]) stood at 76%; in experiment [1] (setting [22]), 46%; in experiment [2] (setting [11]) it was 47%; in experiment [2] (setting [16]), 26%; in experiment [2] (setting [25]), 0%. The pest or weed control at 10 ppm in experiment [1] (setting [5]) was determined as 100%; in experiment [1] (setting [23]) it was 100%; in experiment [2] (setting [12]), 47%; in experiment [2] (setting [17]), 26%; in experiment [2] (setting [26]), 0%. In addition, the pest or weed control at 40 ppm in experiment [1] (setting [6]) came out at 100%; in experiment [1] (setting [24]) it was 100%; in experiment [2] (setting [13]) it was 47%; in experiment [2] (setting [18]), 26%; in experiment [2] (setting [27]), 0%. Further, the pest or weed control at 200 ppm amounted to 100% in experiment [1] (setting [7]); 100% in experiment [1] (read-out: TLB Obsd (observed effect, tomato late blight), component (b) alone, 200 ppm); 47% in experiment [2] (setting [14]); 26% in experiment [2] (setting [19]); 21% in experiment [2] (Pseudoperonospora cubensis, component (b) alone, 200 ppm, read-out: CDM Obsd (observed effect, cucumber downy mildew)). Besides, the pest or weed control at 0.04 ppm is 44% in experiment [1] (read-out: TLB Obsd (observed effect, tomato late blight), component (b) alone, 0.04 ppm) and 15% in experiment [2] (Pseudoperonospora cubensis, component (b) alone, read-out: CDM Obsd (observed effect, cucumber downy mildew)).

For the origin of these results see US8449898B2 (priority 2007, dated 2013).
